ChEMBL document CHEMBL6121041, “Design and synthesis of isatin derivative payloaded peptide-drug conjugate as tubulin inhibitor against colorectal cancer” (Eur J Med Chem, 2025)
Calls of active or inactive are those of the source. The calls are words filed in the database; no cut-off is given here. Residues, ends and D or L forms follow the SMILES beside them. *: point of attachment. X1 = COc1ccc(CN2C(=O)C(=O)c3cc(-c4ccc(OC(=O)CCC(=O)*)cc4)ccc32)cc1

Legend:
[1] = Cytotoxicity against HUVEC cells assessed as reduction in cell viability incubated for 48 hrs by MTT assay; format: toxicity, cell-based; conditions: human
HCT-116 [2] = test: Antiproliferative activity against human HCT-116 cells assessed as reduction in cell viability incubated for 48 hrs by MTT assay; format: functional, cell-based; conditions: HCT-116, 48 h
[3] = Cytotoxicity against HK-2 cells assessed as reduction in cell viability incubated for 48 hrs by MTT assay; format: toxicity, cell-based; conditions: human
786-0 = test: Antiproliferative activity against human 786-0 cells assessed as reduction in cell viability incubated for 48 hrs by MTT assay; format: functional, cell-based; conditions: 786-0, 48 h
HCC827 = test: Antiproliferative activity against human HCC827 cells assessed as reduction in cell viability incubated for 48 hrs by MTT assay; format: functional, cell-based; conditions: HCC827, 48 h
K562 = test: Antiproliferative activity against human K562 cells assessed as reduction in cell viability incubated for 48 hrs by MTT assay; format: functional, cell-based; conditions: K562, 48 h
MGC-803 = test: Antiproliferative activity against human MGC-803 cells assessed as reduction in cell viability incubated for 48 hrs by MTT assay; format: functional, cell-based; conditions: MGC-803, 48 h
HepG2 = test: Antiproliferative activity against human HepG2 cells assessed as reduction in cell viability incubated for 48 hrs by MTT assay; format: functional, cell-based; conditions: HepG2, 48 h
HCT-116 [4] = test: Inhibition of beta-tubulin expression in human HCT-116 cells at 0.2 to 0.8 uM incubated for 24 hrs by Western blot analysis; format: functional, cell-based; conditions: dose 0.2-0.8 µM
HCT-116 [5] = test: Induction of apoptosis in human HCT-116 cells assessed as increase in caspase-3 cleavage level at 0.2 to 0.8 uM incubated for 24 hrs by Western blot analysis; format: functional, cell-based; conditions: dose 0.2-0.8 µM
HCT-116 [6] = test: Induction of apoptosis in human HCT-116 cells assessed as increase in PARP cleavage at 0.2 to 0.8 uM incubated for 24 hrs by Western blot analysis; format: functional, cell-based; conditions: dose 0.2-0.8 µM
HCT-116 [7] = test: Induction of apoptosis in human HCT-116 cells assessed as downregulation of Bcl-2 protein at 0.2 to 0.8 uM measured within 24 hrs by Western blot analysis; format: functional, cell-based; conditions: dose 0.2-0.8 µM
HCT-116 [8] = test: Induction of apoptosis in human HCT-116 cells assessed as upregulation of Bax protein at 0.2 to 0.8 uM measured within 24 hrs by Western blot analysis; format: functional, cell-based; conditions: dose 0.2-0.8 µM
HCT-116 [9] = test: Cell cycle arrest in human HCT-116 cells assessed as accumulation of cells at G2/M phase by measuring decrease in CDK1 expression at 0.2 to 0.8 uM incubated for 24 hrs by Western blot analysis; format: functional, cell-based; conditions: dose 0.2-0.8 µM
HCT-116 [10] = test: Cell cycle arrest in human HCT-116 cells assessed as accumulation of cells at G2/M phase by measuring increase in cyclin B1 expression at 0.2 to 0.8 uM incubated for 24 hrs by Western blot analysis; format: functional, cell-based; conditions: dose 0.2-0.8 µM
HCT-116 [11] = test: Cell cycle arrest in human HCT-116 cells assessed as increase in p21 expression at 0.2 to 0.8 uM incubated for 24 hrs by Western blot analysis; format: functional, cell-based; conditions: dose 0.2-0.8 µM
HCT-116 [12] = test: Cell cycle arrest in human HCT-116 cells assessed as increase in p53 expression at 0.2 to 0.8 uM incubated for 24 hrs by Western blot analysis; format: functional, cell-based; conditions: dose 0.2-0.8 µM
HCT-116 [13] = test: Inhibition of colony formation in human HCT-116 cells at 0.4 to 0.8 uM measured after 10 days by crystal violet staining based inverted microscopic analysis; format: functional, cell-based; conditions: dose 0.4-0.8 µM, time 10.0 day
HCT-116 [14] = test: Inhibition of wound closure in human HCT-116 cells at 0.4 uM measured after 48 hrs by wound healing assay; format: functional, cell-based
HCT-116 [15] = test: Induction of apoptosis in human HCT-116 cells assessed as cell fragmentation at 0.4 to 0.8 microM measured after 24 hrs by microscopic analysis; format: functional, cell-based; conditions: dose 0.4-0.8 µM
HCT-116 [16] = test: Induction of apoptosis in human HCT-116 cells assessed as morphological changes at 0.4 to 0.8 microM measured after 24 hrs by microscopic analysis; format: functional, cell-based; conditions: dose 0.4-0.8 µM
HCT-116 [17] = test: Induction of apoptosis in human HCT-116 cells assessed as morphological changes at 0.4 to 0.8 microM measured after 48 hrs by microscopic analysis; format: functional, cell-based; conditions: dose 0.4-0.8 µM
HCT-116 [18] = test: Induction of apoptosis in human HCT-116 cells at 0.4 to 0.8 uM incubated for 24 hrs by Annexin V-FITC/PI staining based flow cytometric analysis; format: functional, cell-based; conditions: dose 0.4-0.8 µM
HCT-116 [19] = test: Cell cycle arrest in human HCT-116 cells assessed as accumulation of cells at G2/M phase at 0.4 to 0.8 uM incubated for 24 hrs by PI staining based flow cytometric analysis; format: functional; conditions: dose 0.4-0.8 µM
HCT-116 [20] = test: Induction of apoptosis in human HCT-116 cells assessed as increase in caspase-3 activation level at 0.8 uM measured after 24 hrs by Western blot analysis; format: functional, cell-based
HCT-116 [21] = test: Induction of apoptosis in human HCT-116 cells assessed as increase in PARP activation level at 0.8 uM measured after 24 hrs by Western blot analysis; format: functional, cell-based
HCT-116 [22] = test: Induction of apoptosis in human HCT-116 cells assessed as downregulation of Bcl-2 protein at 0.8 uM measured after 24 hrs by Western blot analysis; format: functional, cell-based
HCT-116 [23] = test: Induction of apoptosis in human HCT-116 cells assessed as upregulation of Bax protein at 0.8 uM measured after 24 hrs by Western blot analysis; format: functional, cell-based
HCT-116 [24] = test: Cell cycle arrest in human HCT-116 cells assessed as decrease in CDK1 expression at 0.8 uM incubated for 24 hrs by Western blot analysis; format: functional, cell-based
HCT-116 [25] = test: Cell cycle arrest in human HCT-116 cells assessed as increase in cyclin B1 expression at 0.8 uM incubated for 24 hrs by Western blot analysis; format: functional, cell-based
HCT-116 [26] = test: Cell cycle arrest in human HCT-116 cells assessed as increase in p21 expression at 0.8 uM incubated for 24 hrs by Western blot analysis; format: functional, cell-based
HCT-116 [27] = test: Cell cycle arrest in human HCT-116 cells assessed as increase in p53 expression at 0.8 uM incubated for 24 hrs by Western blot analysis; format: functional, cell-based
HCT-116 [28] = test: Inhibition of beta-tubulin expression in human HCT-116 cells at 0.8 uM incubated for 24 hrs by Western blot analysis; format: functional, cell-based
[29] = Toxicity in SPF-grade Balb/c nude mouse xenografted with human HCT-116 cells assessed as average body weight at 12 mg/kg, ip measured after 10 days; format: organism-based; conditions: in vivo, 240 h, time 10 day
HCT-116 [30] = test: Antitumor activity against human HCT-116 cells xenografted in SPF-grade Balb/c nude mouse model assessed as reduction in tumor size at 12 mg/kg, ip administered daily for 11 days by photographic analysis; format: functional, organism-based; conditions: time 11.0 day
HCT-116 [31] = test: Antitumor activity against human HCT-116 cells xenografted in SPF-grade Balb/c nude mouse model assessed as tumor growth inhibition at 12 mg/kg, ip administered daily for 11 days relative to control; format: functional; conditions: HCT-116, 264 h, time 11 day, read-out: TGI
HCT-116 [32] = test: Antitumor activity against human HCT-116 cells xenografted in SPF-grade Balb/c nude mouse model assessed as tumor growth inhibition at 45.17 mg/kg, ip administered daily for 11 days relative to control; format: functional; conditions: HCT-116, 264 h, time 11 day, read-out: TGI
HCT-116 [33] = test: Antitumor activity against human HCT-116 cells xenografted in SPF-grade Balb/c nude mouse model assessed as inhibition of tumor cell growth at 12 mg/kg, ip administered daily for 11 days by H and E staining based analysis; format: functional, organism-based; conditions: time 11.0 day
[34] = Toxicity in SPF-grade Balb/c nude mouse xenografted with human HCT-116 cells assessed as average body weight at 33.86 to 45.17 mg/kg, ip measured after 10 days; format: organism-based; conditions: in vivo, 240 h, dose 33.86-45.17 mg/kg, time 10 day
HCT-116 [35] = test: Antitumor activity against human HCT-116 cells xenografted in SPF-grade Balb/c nude mouse model assessed as reduction in tumor size at 33.86 to 45.17 mg/kg, ip administered daily for 11 days by photographic analysis; format: functional, organism-based; conditions: dose 33.86-45.17 mg/kg, time 11.0 day
HCT-116 [36] = test: Antitumor activity against human HCT-116 cells xenografted in SPF-grade Balb/c nude mouse model assessed as tumor growth inhibition at 33.86 mg/kg, ip administered daily for 11 days relative to control; format: functional; conditions: HCT-116, 264 h, time 11 day, read-out: TGI
HCT-116 [37] = test: Antitumor activity against human HCT-116 cells xenografted in SPF-grade Balb/c nude mouse model assessed as inhibition of tumor cell growth at 33.86 to 45.17 mg/kg, ip administered daily for 11 days by H and E staining based analysis; format: functional, organism-based; conditions: dose 33.86-45.17 mg/kg, time 11.0 day

| IC50 (HCT-116 [2]) [µM] | Structure (SMILES) | IC50 at 48 h [1] [µM] | inhibition (HCT-116 [13]) | inhibition (HCT-116 [14]) | Activity (HCT-116 [15]) | Activity (HCT-116 [16]) | Activity (HCT-116 [17]) | Activity (HCT-116 [18]) | Activity (HCT-116 [19]) | Activity (HCT-116 [20]) | Activity (HCT-116 [21]) | Activity (HCT-116 [22]) | Activity (HCT-116 [23]) | Activity (HCT-116 [24]) | Activity (HCT-116 [25]) | Activity (HCT-116 [26]) | Activity (HCT-116 [27]) | inhibition (HCT-116 [28]) | other results |
| --- | --- | --- | --- | --- | --- | --- | --- | --- | --- | --- | --- | --- | --- | --- | --- | --- | --- | --- | --- |
| > 100 | CC(=O)N[C@@H](CCCCN)C(=O)N1CCC[C@H]1C(=O)N[C@@H](CO)C(=O)N[C@@H](CO)C(=O)N1CCC[C@H]1C(=O)N1CCC[C@H]1C(=O)N[C@@H](CCC(=O)O)C(=O)N[C@@H](CCC(=O)O)C(N)=O (Ac-KPSSPPEE-NH2) | > 100 |  |  |  |  |  |  |  |  |  |  |  |  |  |  |  |  |  |
| 0.33 | COc1ccc(CN2C(=O)C(=O)c3cc(-c4ccc(O)cc4)ccc32)cc1 | 18.1 | Active | Active | Active | Active | Active; More Evident Apoptotic State Observed | Active | Active | Active | Active | Active | Active | Active | Active | Active | Active | Active | IC50 at 48 h [3]: 13.9 µM; IC50 (786-0): 26.6 µM; IC50 (HCC827): 10.1 µM; IC50 (K562): 0.8 µM; IC50 (MGC-803): 20.6 µM; IC50 (HepG2): > 100 µM; inhibition (HCT-116 [4]): Active; Activity (HCT-116 [5]): Active; Activity (HCT-116 [6]): Active; Activity (HCT-116 [7]): Active; Activation Of Intrinsic Apoptotic Pathway Observed; Activity (HCT-116 [8]): Active; Activation Of Intrinsic Apoptotic Pathway Observed; Activity (HCT-116 [9]): Active; Activity (HCT-116 [10]): Active; Activity (HCT-116 [11]): Active; Activation Of P53-Medisted Signaling Observed; Activity (HCT-116 [12]): Active; Activation Of P53-Medisted Signaling Observed; Activity [29]: ~ 10 g; Activity (HCT-116 [30]): Active; inhibition in vivo at 12 mg/kg (HCT-116 [31]): 49%; inhibition in vivo at 45.17 mg/kg (HCT-116 [32]): 61%; Activity (HCT-116 [33]): Active |
| 0.23 | COc1ccc(CN2C(=O)C(=O)c3cc(-c4ccc(OC(=O)CCC(=O)NCCCC[C@H](NC(C)=O)C(=O)N5CCC[C@H]5C(=O)N[C@@H](CO)C(=O)N[C@@H](CO)C(=O)N5CCC[C@H]5C(=O)N5CCC[C@H]5C(=O)N[C@@H](CCC(=O)O)C(=O)N[C@@H](CCC(=O)O)C(N)=O)cc4)ccc32)cc1 (Ac-K(X1)PSSPPEE-NH2) | 43 | Active | Active | Active | Active | Active; More Evident Apoptotic State Observed | Active | Active | Active | Active | Active | Active | Active | Active | Active | Active | Active | Activity [34]: ~ 10 g; Activity (HCT-116 [35]): Active; inhibition in vivo at 33.86 mg/kg (HCT-116 [36]): 47%; Activity (HCT-116 [37]): Active |
